Species on record: Rattus norvegicus
Experiment: DrugMatrix - Regimen: Daily Repeat
Format: toxicity, organism-based, Sprague-Dawley
Design: regimen Daily Repeat, gender Male, age 6-8 weeks
Conditions: in vivo, po, route oral GAVAGE, vehicle .5 % CMC; for ABSOLUTE BASOPHIL / ABSOLUTE EOSINOPHIL / ABSOLUTE LYMPHOCYTE / ABSOLUTE MONOCYTE / ABSOLUTE SEGMENTED NEUTROPHIL / BASOPHIL / EOSINOPHIL / ERYTHROCYTE COUNT / HEMATOCRIT / HEMOGLOBIN / LEUKOCYTE COUNT / LYMPHOCYTE / MEAN CORPUSCULAR HEMOGLOBIN / MEAN CORPUSCULAR HEMOGLOBIN CONCENTRATION / MEAN CORPUSCULAR VOLUME / MONOCYTE / NEUTROPHIL / NUCLEATED RED BLOOD CELLS / PLATELET COUNT: tissue Blood; for ALANINE AMINOTRANSFERASE / ALBUMIN / ALKALINE PHOSPHATASE / ASPARTATE AMINOTRANSFERASE / BLOOD UREA NITROGEN / CARBON DIOXIDE / CHLORIDE / CHOLESTEROL / CREATINE PHOSPHOKINASE / CREATININE / GLUCOSE / LACTATE DEHYDROGENASE / LIPASE / PHOSPHORUS / POTASSIUM / SODIUM / TOTAL BILIRUBIN / TOTAL PROTEIN / URIC ACID: tissue Plasma
[1] = 0 mg/kg, 72 h, dose level Control, time 3 day
[2] = 0 mg/kg, 120 h, dose level Control, time 5 day
[3] = 1200 mg/kg, 72 h, dose level High, time 3 day

Question: Which results are given for `CCC[C@@H]1C[C@@H](C(=O)N[C@@H]([C@H]2O[C@H](SC)[C@H](O)[C@@H](O)[C@H]2O)[C@@H](C)O)N(C)C1` [LINCOMYCIN]?
Answer: ABSOLUTE BASOPHIL [1]: 0 CELLS/uL; ABSOLUTE EOSINOPHIL [1]: 0 CELLS/uL; ABSOLUTE LYMPHOCYTE [1]: 12269.67 CELLS/uL; ABSOLUTE MONOCYTE [1]: 160.33 CELLS/uL; ABSOLUTE SEGMENTED NEUTROPHIL [1]: 970 CELLS/uL; BASOPHIL [1]: 0%; EOSINOPHIL [1]: 0%; ERYTHROCYTE COUNT [1]: 5.76 x10E6/uL; HEMATOCRIT [1]: 36.57%; HEMOGLOBIN [1]: 14.22 G/DL; LEUKOCYTE COUNT [1]: 13.4 x10E3/uL; LYMPHOCYTE [1]: 91.67%; MEAN CORPUSCULAR HEMOGLOBIN [1]: 24.67 pg; MEAN CORPUSCULAR HEMOGLOBIN CONCENTRATION [1]: 38.85 G/DL; MEAN CORPUSCULAR VOLUME [1]: 63.52 fL; MONOCYTE [1]: 1.17%; NEUTROPHIL [1]: 7.17%; NUCLEATED RED BLOOD CELLS [1]: 0.33 /100WBC; PLATELET COUNT [1]: 1250.83 x10E3/uL; ALANINE AMINOTRANSFERASE [1]: 49.17 u/L; ALBUMIN [1]: 4.33 G/DL; ALKALINE PHOSPHATASE [1]: 378.5 u/L; ASPARTATE AMINOTRANSFERASE [1]: 82.17 u/L; BLOOD UREA NITROGEN [1]: 15 mg/dL; CARBON DIOXIDE [1]: 34.33 mmol/L; CHLORIDE [1]: 99.17 MEQ/L; CHOLESTEROL [1]: 71.17 mg/dL; CREATINE PHOSPHOKINASE [1]: 258.67 u/L; CREATININE [1]: 0.18 mg/dL; GLUCOSE [1]: 142.67 mg/dL; LACTATE DEHYDROGENASE [1]: 154.33 u/L; LIPASE [1]: 9 u/L; PHOSPHORUS [1]: 11.67 mg/dL; POTASSIUM [1]: 7.13 MEQ/L; SODIUM [1]: 142.22 MEQ/L; TOTAL BILIRUBIN [1]: 0.18 mg/dL; TOTAL PROTEIN [1]: 5.77 G/DL; URIC ACID [1]: 1.55 mg/dL; ABSOLUTE BASOPHIL [2]: 0 CELLS/uL; ABSOLUTE EOSINOPHIL [2]: 23.33 CELLS/uL; ABSOLUTE LYMPHOCYTE [2]: 14943.67 CELLS/uL; ABSOLUTE MONOCYTE [2]: 32 CELLS/uL; ABSOLUTE SEGMENTED NEUTROPHIL [2]: 1084.33 CELLS/uL; BASOPHIL [2]: 0%; EOSINOPHIL [2]: 0.17%; ERYTHROCYTE COUNT [2]: 5.71 x10E6/uL; HEMATOCRIT [2]: 35.28%; HEMOGLOBIN [2]: 14.27 G/DL; LEUKOCYTE COUNT [2]: 16.08 x10E3/uL; LYMPHOCYTE [2]: 93%; MEAN CORPUSCULAR HEMOGLOBIN [2]: 25.02 pg; MEAN CORPUSCULAR HEMOGLOBIN CONCENTRATION [2]: 40.43 G/DL; MEAN CORPUSCULAR VOLUME [2]: 61.82 fL; MONOCYTE [2]: 0.17%; NEUTROPHIL [2]: 6.67%; NUCLEATED RED BLOOD CELLS [2]: 0.33 /100WBC; PLATELET COUNT [2]: 1274 x10E3/uL; ALANINE AMINOTRANSFERASE [2]: 54.17 u/L; ALBUMIN [2]: 4.22 G/DL; ALKALINE PHOSPHATASE [2]: 373.17 u/L; ASPARTATE AMINOTRANSFERASE [2]: 81.83 u/L; BLOOD UREA NITROGEN [2]: 16.67 mg/dL; CARBON DIOXIDE [2]: 30.33 mmol/L; CHLORIDE [2]: 99 MEQ/L; CHOLESTEROL [2]: 71 mg/dL; CREATINE PHOSPHOKINASE [2]: 273.5 u/L; CREATININE [2]: 0.22 mg/dL; GLUCOSE [2]: 141.83 mg/dL; LACTATE DEHYDROGENASE [2]: 153.67 u/L; LIPASE [2]: 10.33 u/L; PHOSPHORUS [2]: 11.38 mg/dL; POTASSIUM [2]: 7.08 MEQ/L; SODIUM [2]: 142.75 MEQ/L; TOTAL BILIRUBIN [2]: 0.18 mg/dL; TOTAL PROTEIN [2]: 6.1 G/DL; URIC ACID [2]: 1.67 mg/dL; ABSOLUTE BASOPHIL [3]: 0 CELLS/uL; ABSOLUTE EOSINOPHIL [3]: 0 CELLS/uL; ABSOLUTE LYMPHOCYTE [3]: 14618 CELLS/uL; ABSOLUTE MONOCYTE [3]: 0 CELLS/uL; ABSOLUTE SEGMENTED NEUTROPHIL [3]: 1248.67 CELLS/uL; BASOPHIL [3]: 0%; EOSINOPHIL [3]: 0%; ERYTHROCYTE COUNT [3]: 5.99 x10E6/uL; HEMATOCRIT [3]: 37.8%; HEMOGLOBIN [3]: 15 G/DL; LEUKOCYTE COUNT [3]: 15.87 x10E3/uL; LYMPHOCYTE [3]: 92.33%; MEAN CORPUSCULAR HEMOGLOBIN [3]: 25.1 pg; MEAN CORPUSCULAR HEMOGLOBIN CONCENTRATION [3]: 39.73 G/DL; MEAN CORPUSCULAR VOLUME [3]: 63.2 fL; MONOCYTE [3]: 0%; NEUTROPHIL [3]: 7.67%; NUCLEATED RED BLOOD CELLS [3]: 0 /100WBC; PLATELET COUNT [3]: 1182.33 x10E3/uL; ALANINE AMINOTRANSFERASE [3]: 58.67 u/L; ALBUMIN [3]: 4.3 G/DL; ALKALINE PHOSPHATASE [3]: 350.33 u/L; ASPARTATE AMINOTRANSFERASE [3]: 86.33 u/L; BLOOD UREA NITROGEN [3]: 17.33 mg/dL; CARBON DIOXIDE [3]: 33.33 mmol/L; CHLORIDE [3]: 99 MEQ/L; CHOLESTEROL [3]: 100.67 mg/dL; CREATINE PHOSPHOKINASE [3]: 190.67 u/L; CREATININE [3]: 0.21 mg/dL; GLUCOSE [3]: 155.33 mg/dL; LACTATE DEHYDROGENASE [3]: 170.67 u/L; LIPASE [3]: 9.67 u/L; PHOSPHORUS [3]: 12.27 mg/dL; POTASSIUM [3]: 7.02 MEQ/L; SODIUM [3]: 145.6 MEQ/L; TOTAL BILIRUBIN [3]: 0.23 mg/dL; TOTAL PROTEIN [3]: 6.23 G/DL; URIC ACID [3]: 1.33 mg/dL
